These results are taken from patent US8846711B2, “Heterocyclic acrylamides and their use as pharmaceuticals” (Fab Pharma S.A.S., priority 2009, dated 2014).

Data set [1] deals with S. aureus CIP 54.146. As to the kind of experiment: MIC determination using broth microdilution method. Type of data set: cell-based. Particulars: Staphylococcus aureus, CIP54 / MSSA, read-out: MIC (μg/ml) S. aureus CIP 54.146. The procedure:
The compounds of the invention are useful antibacterial agents having a selective spectrum of activity in vitro against bacterial strains relying on FabI and related targets. […] The activity is presented as Minimum Inhibitory Concentration (MIC) expressed in μg/ml and was determined using broth microdilution or Agar dilution methods.
Antibacterial activity was determined on strains from Mutabilis internal collection.
This protocol is compliant with Clinical Laboratory Standards Institute (CLSI) methodology as described in M7-A7 document of the CLSI. The compound to be tested is diluted according to a geometric series of reason 2 in pure DMSO. Dilutions are transferred in sterile polystyrene microplates, followed by mid-log phase bacteria in cation-adjusted Muller-Hinton broth (ca-MHB, Fluka, Reference 90922) with a final inoculum of 5×10^5 cfu/ml. Microplates are incubated overnight at 35° C. MIC is defined as the lowest concentration of antimicrobial agent that completely prevents visible bacterial growth. All manipulations, but compound handling (in pure DMSO), are performed under sterile conditions. The final concentration of DMSO in the plates is 2%.

Data set [2] has as its target human albumin (HSA) (Homo sapiens (Human), UniProt P02768). The data set can be described thus: HSA binding analysis using a chiral HSA column. In kind it is in vitro ADME. The text has this: The test system used in this analysis was an HSA chiral column.
The relationship between the retention time (Tr) and percentage of albumin binding (AB %) depended on the dead time (TO) and the capacity factor (k′): AB%=[k′/(k′+1)]*100
HSA binding was classified as follows:
75%≦AB<90%: Moderate binding

Data set [3] concerns E. faecalis (ATCC 29212). The data set can be described thus: MIC determination using susceptibility method (broth microdilution). In kind it is cell-based. Particulars: Enterococcus faecalis, ATCC29212, read-out: MIC (μg/ml) E. faecalis (ATCC 29212). The procedure:
(§1) Minimum inhibitory concentrations (MICs) were determined by broth microdilution according to CLSI guidelines (CLSI, M100-20^1, M7-A8^2, M27-A3^3). The compounds were tested in the range from […]. Colonies were taken directly from a second-pass culture plate and prepared to a suspension equivalent to the 0.5 McFarland standard using normal saline. […] The panels were incubated at 35° C. for 16 to 20 hours before reading the MIC endpoints. The compounds of Examples 12, 29, 59, 63 and 66-71 were dissolved in DMSO to make the initial solutions of 5120 μg/ml. These solutions were diluted 1:10 in sterile water to a stock solution of 512 μg/ml. The stock solutions were further diluted into the appropriate broth medium for the sequential dilutions used in the broth microdilution panels. S. pneumoniae was tested in Mueller Hinton (MH) broth with 3% lysed horse blood and C. albicans was tested in RPMI-1640 medium. All other organisms were tested in MH broth.
In general terms: Broth dilution looks for growth in wells or tubes with falling amounts of substance.

For data set [4], the system named is MRSA (IHMA #510059). The description is as above. Particulars: Staphylococcus aureus, read-out: MIC (μg/ml) MRSA (IHMA #510059). In kind it is cell-based. The procedure:
as §1

In data set [5] the test system is S. aureus ATCC 29213. The data set is described as above. Type of data set: cell-based. Particulars: Staphylococcus aureus, ATCC29213, read-out: MIC (μg/ml) S. aureus ATCC 29213. The procedure:
as §1

The test system of data set [6] is MSSA (IHMA #555189). The data set is described as above. In kind it is cell-based. Particulars: Staphylococcus aureus, read-out: MIC (μg/ml) MSSA (IHMA #555189). The procedure:
as §1

In data set [7] the test system is E. coli (ATCC 25922). The data set is described as above. Type of data set: cell-based. Particulars: Escherichia coli, ATCC25922, read-out: MIC (μg/ml) E. coli (ATCC 25922). The procedure:
as §1

For data set [8], the system named is S. pneumoniae (ATCC 49619). The data set is described as above. Type of data set: cell-based. Particulars: Streptococcus pneumoniae, ATCC49619, read-out: MIC (μg/ml) S. pneumoniae (ATCC 49619). The procedure: as §1
Data set [9] relates to C. albicans (ATCC 90028). The data set is described as above. Type of data set: cell-based. Particulars: Candida albicans, ATCC90028, read-out: MIC (μg/ml) C. albicans (ATCC 90028). The procedure:
as §1

≈ marks a conversion by molar mass, not a printed value.

Sequence of human albumin (HSA) (P02768 25-609): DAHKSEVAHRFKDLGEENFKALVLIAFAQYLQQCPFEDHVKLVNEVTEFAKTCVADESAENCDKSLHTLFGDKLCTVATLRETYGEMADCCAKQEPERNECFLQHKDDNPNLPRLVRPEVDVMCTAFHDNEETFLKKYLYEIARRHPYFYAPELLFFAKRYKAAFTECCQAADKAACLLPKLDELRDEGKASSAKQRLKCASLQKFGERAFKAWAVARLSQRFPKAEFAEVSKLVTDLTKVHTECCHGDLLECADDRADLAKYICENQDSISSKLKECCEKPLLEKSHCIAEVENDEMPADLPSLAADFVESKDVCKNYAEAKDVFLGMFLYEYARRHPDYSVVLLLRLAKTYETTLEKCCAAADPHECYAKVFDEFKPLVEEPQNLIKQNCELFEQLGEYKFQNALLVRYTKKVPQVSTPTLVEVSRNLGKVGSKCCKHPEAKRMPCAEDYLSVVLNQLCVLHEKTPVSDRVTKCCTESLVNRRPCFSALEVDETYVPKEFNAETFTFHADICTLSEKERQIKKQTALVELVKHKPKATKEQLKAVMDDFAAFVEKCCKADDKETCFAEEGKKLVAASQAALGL

Take `O=C1CCc2cc(/C=C/C(=O)N3CC(OCc4cccs4)C3)cnc2N1` [Example 12, 6-{(1E)-3-Oxo-3-[3-(2-thienylmethoxy)azetidin-1-yl]prop-1-en-1-yl}-3,4-dihydro-1,8-naphthyridin-2(1H)-one]: the MIC is 4 µg/mL (≈ 10.8 µM) in data set [1]; over 128 µg/mL in [3]; 1 µg/mL (≈ 2.71 µM) in [4]; 1 µg/mL (≈ 2.71 µM) in [5]; 1 µg/mL (≈ 2.71 µM) in data set [6]; over 128 µg/mL in data set [7]. Besides, the MIC in [8] and in data set [9] was over 128 µg/mL each time. Also, in [2] (AB%=[k′/(k′+1)]*100, chiral HSA column, pH 7.0), the “HSA Binding (%)” value was 45.2%. Besides, in [2] (capacity factor, k′=(Tr−T0)/T0), the “k′” value is recorded as 0.826. In data set [2] (chiral HSA column), the “Conclusion (HSA binding class)” value was “Low binding (AB<75%: Low binding)”. Further, the “Tr” value in data set [2] (retention time on chiral HSA column, pH 7.0, 37° C.) turned out to be 1.410 min. For the same compound, the “affinity in vitro to human albumin” value in [2] (text summary of Table 7) is “low affinity”.
